Assays:
Assay in all cases: Bliss excess, mean over the matrix (fraction); higher = more synergy
EW-11 (Ewing's Sarcoma) = tested on: EW-11 (Ewing's Sarcoma)
Outline: (§1)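 Bliss excess equals the observed combination effect minus the expected value EA + EB − EA·EB, where EA and EB are the effects of each agent alone. Combination Emax is the second-highest inhibition within the matrix. Inhibition was scaled from CellTiter-Glo 2.0 luminescence, with 0 set by vehicle wells and 1 by blank wells, after 72 hours of two-drug dosing of cells plated in 1536-well plates.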

CAL-72 (Osteosarcoma) = tested on: CAL-72 (Osteosarcoma)
Outline: as §1

[1] = tested on: SW1573 (Lung Adenocarcinoma)
Outline: as §1

[2] = tested on: HH (T-Cell Non-Hodgkin's Lymphoma)
Outline: as §1

[3] = tested on: NCI-H209 (Small Cell Lung Carcinoma)
Outline: as §1

LOXIMVI (Melanoma) = tested on: LOXIMVI (Melanoma)
Outline: as §1

[4] = tested on: ALL-PO (B-Lymphoblastic Leukemia)
Outline: as §1

[5] = tested on: OVCAR-5 (Ovarian Carcinoma)
Outline: as §1

[6] = tested on: LCLC-97TM1 (Non-Small Cell Lung Carcinoma)
Outline: as §1

[7] = tested on: LS-123 (Colorectal Carcinoma)
Outline: as §1

| Compound | Bliss excess (EW-11 (Ewing's Sarcoma)) | Bliss excess (CAL-72 (Osteosarcoma)) | Bliss excess [1] | Bliss excess [2] | Bliss excess [3] | Bliss excess (LOXIMVI (Melanoma)) | Bliss excess [4] | Bliss excess [5] | Bliss excess [6] | Bliss excess [7] |
| --- | --- | --- | --- | --- | --- | --- | --- | --- | --- | --- |
| CN(CCO)CC[C@H](CSc1ccccc1)Nc1ccc(S(=O)(=O)NC(=O)c2ccc(N3CCC([C@@H](O)c4ccccc4-c4ccc(Cl)cc4)CC3)cc2)cc1S(=O)(=O)C(F)(F)F [AZD4320] + CN(C)CCCOc1ccc(-c2ccc3ncc4c(c3c2)n(C2CCOCC2)c(=O)n4C)cn1 [AZD0156] (first compound max 1 µM, 7x7, partner max 1 µM) | -0.0102 | -0.0292 | -0.0585 | -0.0203 | 0.033 | 0.0015 | 0.0031 | -0.0527 | -0.0244 | – |
| CN(CCO)CC[C@H](CSc1ccccc1)Nc1ccc(S(=O)(=O)NC(=O)c2ccc(N3CCC([C@@H](O)c4ccccc4-c4ccc(Cl)cc4)CC3)cc2)cc1S(=O)(=O)C(F)(F)F [AZD4320] + Cn1cnc2c(F)c(Nc3ccc(Br)cc3Cl)c(C(=O)NOCCO)cc21 [Selumetinib] (first compound max 1 µM, 7x7, partner max 3 µM) | -0.0786 | -0.0089 | 0.0119 | -0.0255 | -0.0215 | 0.0352 | 0.0571 | -0.0282 | 0.0523 | – |
| COc1nnc2ccc(N3CCC(c4ccc(OCCN5CCN(C)C(=O)[C@H]5C)cc4)CC3)nn12 [AZD5153] + C=CCn1c(=O)c2cnc(Nc3ccc(N4CCN(C)CC4)cc3)nc2n1-c1cccc(C(C)(C)O)n1 [AZD1775] (first compound max 1 µM, partner max 1 µM) | -0.0976 | -0.0524 | -0.0388 | -0.0442 | 0.0223 | -0.0494 | -0.0198 | -0.0591 | -0.0845 | -0.0445 |
| COc1nnc2ccc(N3CCC(c4ccc(OCCN5CCN(C)C(=O)[C@H]5C)cc4)CC3)nn12 [AZD5153] + CC1(C)CCC(CN2CCN(c3ccc(C(=O)NS(=O)(=O)c4ccc(NCC5CCOCC5)c([N+](=O)[O-])c4)c(Oc4cnc5[nH]ccc5c4)c3)CC2)=C(c2ccc(Cl)cc2)C1 [Venetoclax] (first compound max 1 µM, 7x7, partner max 1 µM) | -0.117 | -0.0305 | -0.118 | -0.065 | -0.008 | -0.0687 | 0.058 | -0.052 | -0.0277 | 0.0205 |
| COc1nnc2ccc(N3CCC(c4ccc(OCCN5CCN(C)C(=O)[C@H]5C)cc4)CC3)nn12 [AZD5153] + CCN(CCO)CCCOc1ccc2c(Nc3cc(CC(=O)Nc4cccc(F)c4)[nH]n3)ncnc2c1 [AZD2811] (first compound max 1 µM, 7x7, partner max 1 µM) | -0.06 | -0.012 | -0.0609 | 0.0055 | -0.0145 | -0.0129 | -0.0134 | -0.0781 | -0.0325 | -0.0004 |
| COc1nnc2ccc(N3CCC(c4ccc(OCCN5CCN(C)C(=O)[C@H]5C)cc4)CC3)nn12 [AZD5153] + C[C@@H]1COCCN1C2=NC(=NC(=C2)C3(CC3)[S@](=N)(=O)C)C4=C5C=CNC5=NC=C4 [AZD6738] (first compound max 1 µM, 7x7, partner max 10 µM) | 0.0006 | -0.0087 | 0.109 | -0.0324 | 0.019 | -0.0413 | 0.0106 | -0.0276 | -0.033 | 0.0091 |
| COc1nnc2ccc(N3CCC(c4ccc(OCCN5CCN(C)C(=O)[C@H]5C)cc4)CC3)nn12 [AZD5153] + Cc1c2c(nn1C)CSCc1cc(n(C)n1)CSc1cc(c3ccccc3c1)OCCCc1c(C(=O)O)n(C)c3c-2c(Cl)ccc13 [AZD5991] (first compound max 1 µM, 7x7, partner max 1 µM) | 0.111 | 0.0287 | -0.0366 | 0.0776 | 0.0546 | 0.0393 | 0.0091 | -0.043 | -0.017 | -0.0249 |
| COc1nnc2ccc(N3CCC(c4ccc(OCCN5CCN(C)C(=O)[C@H]5C)cc4)CC3)nn12 [AZD5153] + Cn1cnc2c(F)c(Nc3ccc(Br)cc3Cl)c(C(=O)NOCCO)cc21 [Selumetinib] (first compound max 1 µM, 7x7, partner max 10 µM) | -0.0633 | -0.0414 | -0.0062 | -0.0817 | -0.0214 | -0.0679 | -0.0054 | -0.0429 | -0.0694 | 0.0261 |
| Cc1c2c(nn1C)CSCc1cc(n(C)n1)CSc1cc(c3ccccc3c1)OCCCc1c(C(=O)O)n(C)c3c-2c(Cl)ccc13 [AZD5991] + C1CN(CCC1(C(=O)N[C@@H](CCO)C2=CC=C(C=C2)Cl)N)C3=NC=NC4=C3C=CN4 [Capivasertib] (first compound max 1 µM, 7x7, partner max 3 µM) | -0.02 | 0.005 | -0.0587 | 0.0176 | 0.0273 | -0.0067 | 0.0327 | -0.0337 | -0.0061 | 0.0203 |
| Cc1c2c(nn1C)CSCc1cc(n(C)n1)CSc1cc(c3ccccc3c1)OCCCc1c(C(=O)O)n(C)c3c-2c(Cl)ccc13 [AZD5991] + C=CCn1c(=O)c2cnc(Nc3ccc(N4CCN(C)CC4)cc3)nc2n1-c1cccc(C(C)(C)O)n1 [AZD1775] (first compound max 1 µM, partner max 1 µM) | -0.0011 | 0.0098 | -0.0337 | -0.0046 | 0.0103 | -0.029 | 0.0023 | -0.0096 | -0.0141 | -0.0197 |
| Cc1c2c(nn1C)CSCc1cc(n(C)n1)CSc1cc(c3ccccc3c1)OCCCc1c(C(=O)O)n(C)c3c-2c(Cl)ccc13 [AZD5991] + CCN(CCO)CCCOc1ccc2c(Nc3cc(CC(=O)Nc4cccc(F)c4)[nH]n3)ncnc2c1 [AZD2811] (first compound max 1 µM, 7x7, partner max 1 µM) | 0.0342 | 0.0582 | 0.0108 | -0.049 | 0.191 | 0.0212 | -0.0077 | -0.0434 | 0.0885 | – |
| Cc1c2c(nn1C)CSCc1cc(n(C)n1)CSc1cc(c3ccccc3c1)OCCCc1c(C(=O)O)n(C)c3c-2c(Cl)ccc13 [AZD5991] + CN(C)CCCOc1ccc(-c2ccc3ncc4c(c3c2)n(C2CCOCC2)c(=O)n4C)cn1 [AZD0156] (first compound max 1 µM, 7x7, partner max 1 µM) | -0.0946 | 0.0298 | -0.0245 | -0.0248 | 0.008 | 0.0016 | -0.0005 | -0.024 | -0.0018 | -0.01 |
| Cc1c2c(nn1C)CSCc1cc(n(C)n1)CSc1cc(c3ccccc3c1)OCCCc1c(C(=O)O)n(C)c3c-2c(Cl)ccc13 [AZD5991] + C[C@@H]1COCCN1C2=NC(=NC(=C2)C3(CC3)[S@](=N)(=O)C)C4=C5C=CNC5=NC=C4 [AZD6738] (first compound max 1 µM, 7x7, partner max 10 µM) | 0.0217 | 0.0213 | 0.0337 | 0.0317 | 0.138 | -0.0373 | 0.0236 | -0.0248 | 0.0401 | -0.0046 |
| Cc1c2c(nn1C)CSCc1cc(n(C)n1)CSc1cc(c3ccccc3c1)OCCCc1c(C(=O)O)n(C)c3c-2c(Cl)ccc13 [AZD5991] + C[C@@H](Nc1cc(F)cc(F)c1)c1cc(C(=O)N(C)C)cc2c(=O)cc(N3CCOCC3)oc12 [AZD8186] (first compound max 1 µM, 7x7, partner max 3 µM) | -0.0009 | -0.0149 | -0.0565 | 0.105 | -0.0154 | -0.0227 | -0.0248 | -0.0106 | -0.003 | -0.0006 |
| Cc1c2c(nn1C)CSCc1cc(n(C)n1)CSc1cc(c3ccccc3c1)OCCCc1c(C(=O)O)n(C)c3c-2c(Cl)ccc13 [AZD5991] + Cn1cnc2c(F)c(Nc3ccc(Br)cc3Cl)c(C(=O)NOCCO)cc21 [Selumetinib] (first compound max 1 µM, 7x7, partner max 3 µM) | -0.0106 | 0.0483 | -0.0427 | -0.0664 | -0.0778 | 0.0256 | 0.0056 | -0.0349 | 0.0506 | 0.0196 |
| NC1(C(=O)N[C@@H](CCO)c2ccc(Cl)cc2)CCN(c2ncnc3[nH]ccc23)CC1 [Capivasertib] + CC(=O)c1c(C)c2cnc(Nc3ccc(N4CCNCC4)cn3)nc2n(C2CCCC2)c1=O [Palbociclib] (first compound max 10 µM, 7x7, partner max 10 µM) | 0.0121 | 0.0236 | -0.0253 | -0.0305 | -0.0433 | 0.0391 | -0.0252 | -0.0396 | 0.0152 | -0.0026 |
| NC1(C(=O)N[C@@H](CCO)c2ccc(Cl)cc2)CCN(c2ncnc3[nH]ccc23)CC1 [Capivasertib] + CC(C)n1c(=O)n(C)c2cnc3cc(F)c(-c4ccc(OCCCN5CCCCC5)nc4)cc3c21 [AZD1390] (first compound max 10 µM, 7x7, partner max 0.3 µM) | -0.0438 | -0.133 | -0.0724 | -0.0327 | -0.037 | -0.0063 | -0.0382 | -0.0829 | -0.0278 | -0.0493 |
| NC1(C(=O)N[C@@H](CCO)c2ccc(Cl)cc2)CCN(c2ncnc3[nH]ccc23)CC1 [Capivasertib] + CCN(CCO)CCCOc1ccc2c(Nc3cc(CC(=O)Nc4cccc(F)c4)[nH]n3)ncnc2c1 [AZD2811] (first compound max 10 µM, 7x7, partner max 1 µM) | 0.0737 | 0.002 | -0.0197 | -0.0221 | -0.0383 | -0.0072 | -0.0254 | -0.0223 | 0.0429 | -0.0179 |
| NC1(C(=O)N[C@@H](CCO)c2ccc(Cl)cc2)CCN(c2ncnc3[nH]ccc23)CC1 [Capivasertib] + COc1nnc2ccc(N3CCC(c4ccc(OCCN5CCN(C)C(=O)[C@H]5C)cc4)CC3)nn12 [AZD5153] (first compound max 10 µM, 7x7, partner max 1 µM) | 0.115 | 0.005 | -0.0278 | 0.0022 | -0.0007 | 0.0133 | -0.0116 | 0.0138 | 0.0079 | 0.0517 |
| NC1(C(=O)N[C@@H](CCO)c2ccc(Cl)cc2)CCN(c2ncnc3[nH]ccc23)CC1 [Capivasertib] + C[C@@H]1COCCN1C2=NC(=NC(=C2)C3(CC3)[S@](=N)(=O)C)C4=C5C=CNC5=NC=C4 [AZD6738] (first compound max 10 µM, 7x7, partner max 10 µM) | -0.011 | -0.0202 | -0.0915 | -0.0396 | -0.0054 | -0.0014 | 0.0103 | -0.0357 | -0.0607 | 0.0058 |
